Species on record: Rattus norvegicus
Assay: Open TG-GATES - Regimen: Daily Repeat
Format: toxicity, organism-based, Sprague-Dawley
Set-up: regimen Daily Repeat, gender Male, age 6 weeks
Details: in vivo, po, route gavage; for APTT / Bas / Eos / Fbg / Hb / Ht / Lym / MCH / MCHC / MCV / Mono / Neu / PT / Plat / RBC / Ret / WBC: tissue Blood; for KIDNEY_L / KIDNEY_R / KIDNEY_TOTAL: tissue Kidney; for LIVER: tissue Liver; for A/G / ALP / ALT / AST / BUN / CRE / Ca / Cl / DBIL / GLC / IP / K / LDH / Na / PL / RALB / TBIL / TC / TG / TP / gamma-GTP: tissue Plasma
[1] = 20 mg/kg, 72 h, dose level Middle, time 3 day
[2] = 20 mg/kg, […], dose level Middle, time 7 day
[3] = 20 mg/kg, […], dose level Middle, time 14 day
[4] = 20 mg/kg, […], dose level Middle, time 28 day
[5] = 60 mg/kg, 72 h, dose level High, time 3 day
[6] = 60 mg/kg, […], dose level High, time 7 day
[7] = 60 mg/kg, […], dose level High, time 14 day
[8] = 60 mg/kg, […], dose level High, time 28 day

CC(C)NNC(=O)c1ccncc1 [IPRONIAZID]
TERMINAL_BW [1]: 194.3 g
APTT [1]: 22.2 s
Bas [1]: 0%
Eos [1]: 1%
Fbg [1]: 299.2 mg/dL
Hb [1]: 14.1 g/dL
Ht [1]: 40.8%
Lym [1]: 78.8%
MCH [1]: 20.7 pg
MCHC [1]: 34.6%
MCV [1]: 59.9 fL
Mono [1]: 2.4%
Neu [1]: 17.6%
PT [1]: 16.5 s
Plat [1]: 134 x10_4/uL
RBC [1]: 682.6 x10_4/ul
Ret [1]: 5.9%
WBC [1]: 72.4 x10_2/uL
KIDNEY_L [1]: 0.8 g
KIDNEY_R [1]: 0.9 g
KIDNEY_TOTAL [1]: 1.7 g
LIVER [1]: 8.7 g
A/G [1]: 1.2
ALP [1]: 1696.2 IU/L
ALT [1]: 42 IU/L
AST [1]: 74 IU/L
BUN [1]: 19.2 mg/dL
CRE [1]: 0.2 mg/dL
Ca [1]: 10.5 mg/dL
Cl [1]: 108.2 meq/L
DBIL [1]: 0.002 mg/dL
GLC [1]: 175 mg/dL
IP [1]: 7.1 mg/dL
K [1]: 4.4 meq/L
LDH [1]: 262 IU/L
Na [1]: 143.2 meq/L
PL [1]: 150.8 mg/dL
RALB [1]: 3.3 g/dL
TBIL [1]: 0.01 mg/dL
TC [1]: 80.6 mg/dL
TG [1]: 105.2 mg/dL
TP [1]: 5.9 g/dL
gamma-GTP [1]: 1 IU/L
TERMINAL_BW [2]: 222.7 g
TERMINAL_BW [3]: 259.4 g
TERMINAL_BW [4]: 331.2 g
APTT [2]: 22.7 s
Bas [2]: 0%
Eos [2]: 1%
Fbg [2]: 311.4 mg/dL
Hb [2]: 13.3 g/dL
Ht [2]: 37.6%
Lym [2]: 82.2%
MCH [2]: 20.5 pg
MCHC [2]: 35.4%
MCV [2]: 57.8 fL
Mono [2]: 1.8%
Neu [2]: 13.8%
PT [2]: 15.4 s
Plat [2]: 122.6 x10_4/uL
RBC [2]: 651.6 x10_4/ul
Ret [2]: 4.2%
WBC [2]: 73.7 x10_2/uL
APTT [3]: 20.5 s
Bas [3]: 0%
Eos [3]: 0.6%
Fbg [3]: 320.6 mg/dL
Hb [3]: 12.5 g/dL
Ht [3]: 36.8%
Lym [3]: 76%
MCH [3]: 19.9 pg
MCHC [3]: 34%
MCV [3]: 58.7 fL
Mono [3]: 2.2%
Neu [3]: 20.4%
PT [3]: 16.1 s
Plat [3]: 122.7 x10_4/uL
RBC [3]: 628 x10_4/ul
Ret [3]: 8.9%
WBC [3]: 105.3 x10_2/uL
APTT [4]: 24 s
Bas [4]: 0%
Eos [4]: 1%
Fbg [4]: 313.2 mg/dL
Hb [4]: 13.5 g/dL
Ht [4]: 39%
Lym [4]: 80.8%
MCH [4]: 20.6 pg
MCHC [4]: 34.5%
MCV [4]: 59.6 fL
Mono [4]: 1.2%
Neu [4]: 16.6%
PT [4]: 16.3 s
Plat [4]: 108.1 x10_4/uL
RBC [4]: 654.8 x10_4/ul
Ret [4]: 6.7%
WBC [4]: 133.5 x10_2/uL
KIDNEY_L [2]: 0.9 g
KIDNEY_R [2]: 0.9 g
KIDNEY_TOTAL [2]: 1.8 g
KIDNEY_L [3]: 1 g
KIDNEY_R [3]: 1 g
KIDNEY_TOTAL [3]: 2.1 g
KIDNEY_L [4]: 1.2 g
KIDNEY_R [4]: 1.2 g
KIDNEY_TOTAL [4]: 2.4 g
LIVER [2]: 9.4 g
LIVER [3]: 10.8 g
LIVER [4]: 12.6 g
A/G [2]: 1.2
ALP [2]: 1298.6 IU/L
ALT [2]: 36.2 IU/L
AST [2]: 75 IU/L
BUN [2]: 18.6 mg/dL
CRE [2]: 0.2 mg/dL
Ca [2]: 10.4 mg/dL
Cl [2]: 107.6 meq/L
DBIL [2]: 0.004 mg/dL
GLC [2]: 179.4 mg/dL
IP [2]: 6.6 mg/dL
K [2]: 4.2 meq/L
LDH [2]: 206.4 IU/L
Na [2]: 142.2 meq/L
PL [2]: 154.8 mg/dL
RALB [2]: 3.1 g/dL
TBIL [2]: 0.006 mg/dL
TC [2]: 88.6 mg/dL
TG [2]: 89 mg/dL
TP [2]: 5.7 g/dL
gamma-GTP [2]: 1.4 IU/L
A/G [3]: 1.1
ALP [3]: 1067 IU/L
ALT [3]: 40.2 IU/L
AST [3]: 70.8 IU/L
BUN [3]: 18.2 mg/dL
CRE [3]: 0.2 mg/dL
Ca [3]: 10.4 mg/dL
Cl [3]: 106.6 meq/L
DBIL [3]: 0.004 mg/dL
GLC [3]: 182.6 mg/dL
IP [3]: 6.7 mg/dL
K [3]: 4.3 meq/L
LDH [3]: 154.6 IU/L
Na [3]: 142.2 meq/L
PL [3]: 153.8 mg/dL
RALB [3]: 3 g/dL
TBIL [3]: 0.026 mg/dL
TC [3]: 85 mg/dL
TG [3]: 118.6 mg/dL
TP [3]: 5.7 g/dL
gamma-GTP [3]: 1.8 IU/L
A/G [4]: 1.1
ALP [4]: 1143.8 IU/L
ALT [4]: 37.2 IU/L
AST [4]: 68 IU/L
BUN [4]: 17.4 mg/dL
CRE [4]: 0.2 mg/dL
Ca [4]: 10.4 mg/dL
Cl [4]: 106.2 meq/L
DBIL [4]: 0 mg/dL
GLC [4]: 184.2 mg/dL
IP [4]: 6.9 mg/dL
K [4]: 4.2 meq/L
LDH [4]: 157.6 IU/L
Na [4]: 141.8 meq/L
PL [4]: 138.4 mg/dL
RALB [4]: 3.1 g/dL
TBIL [4]: 0.038 mg/dL
TC [4]: 68.4 mg/dL
TG [4]: 122.6 mg/dL
TP [4]: 5.9 g/dL
gamma-GTP [4]: 2.2 IU/L
TERMINAL_BW [5]: 184.6 g
APTT [5]: 22.8 s
Bas [5]: 0%
Eos [5]: 0.8%
Fbg [5]: 317.4 mg/dL
Hb [5]: 13.1 g/dL
Ht [5]: 38.2%
Lym [5]: 86.2%
MCH [5]: 20.5 pg
MCHC [5]: 34.4%
MCV [5]: 59.6 fL
Mono [5]: 1.6%
Neu [5]: 10.8%
PT [5]: 16.9 s
Plat [5]: 145 x10_4/uL
RBC [5]: 640.8 x10_4/ul
Ret [5]: 5.5%
WBC [5]: 90.9 x10_2/uL
KIDNEY_L [5]: 0.9 g
KIDNEY_R [5]: 0.9 g
KIDNEY_TOTAL [5]: 1.7 g
LIVER [5]: 8.1 g
A/G [5]: 1.2
ALP [5]: 1455.4 IU/L
ALT [5]: 34 IU/L
AST [5]: 78.2 IU/L
BUN [5]: 20.4 mg/dL
CRE [5]: 0.2 mg/dL
Ca [5]: 10.2 mg/dL
Cl [5]: 108.2 meq/L
DBIL [5]: 0.002 mg/dL
GLC [5]: 175.4 mg/dL
IP [5]: 7.2 mg/dL
K [5]: 4.2 meq/L
LDH [5]: 305.2 IU/L
Na [5]: 143.4 meq/L
PL [5]: 149.6 mg/dL
RALB [5]: 3.2 g/dL
TBIL [5]: 0.04 mg/dL
TC [5]: 89.6 mg/dL
TG [5]: 61.2 mg/dL
TP [5]: 5.8 g/dL
gamma-GTP [5]: 1.2 IU/L
TERMINAL_BW [6]: 201.3 g
TERMINAL_BW [7]: 239 g
TERMINAL_BW [8]: 299.7 g
APTT [6]: 21.6 s
Bas [6]: 0%
Eos [6]: 1%
Fbg [6]: 275.8 mg/dL
Hb [6]: 11.7 g/dL
Ht [6]: 33.9%
Lym [6]: 77.2%
MCH [6]: 20.4 pg
MCHC [6]: 34.4%
MCV [6]: 59.3 fL
Mono [6]: 2.2%
Neu [6]: 19%
PT [6]: 16.3 s
Plat [6]: 121.7 x10_4/uL
RBC [6]: 571.6 x10_4/ul
Ret [6]: 7.4%
WBC [6]: 126.5 x10_2/uL
APTT [7]: 21.3 s
Bas [7]: 0%
Eos [7]: 1%
Fbg [7]: 302.2 mg/dL
Hb [7]: 11.4 g/dL
Ht [7]: 35.7%
Lym [7]: 78%
MCH [7]: 22.2 pg
MCHC [7]: 31.8%
MCV [7]: 69.8 fL
Mono [7]: 2%
Neu [7]: 18.4%
PT [7]: 16.5 s
Plat [7]: 115.4 x10_4/uL
RBC [7]: 511.4 x10_4/ul
Ret [7]: 19.5%
WBC [7]: 131.9 x10_2/uL
APTT [8]: 21.5 s
Bas [8]: 0%
Eos [8]: 0.8%
Fbg [8]: 352.8 mg/dL
Hb [8]: 11.9 g/dL
Ht [8]: 35%
Lym [8]: 77%
MCH [8]: 21.6 pg
MCHC [8]: 33.9%
MCV [8]: 63.7 fL
Mono [8]: 2.2%
Neu [8]: 18.8%
PT [8]: 16.9 s
Plat [8]: 108.7 x10_4/uL
RBC [8]: 550.2 x10_4/ul
Ret [8]: 12.4%
WBC [8]: 121.5 x10_2/uL
KIDNEY_L [6]: 1 g
KIDNEY_R [6]: 0.9 g
KIDNEY_TOTAL [6]: 1.9 g
KIDNEY_L [7]: 1 g
KIDNEY_R [7]: 1 g
KIDNEY_TOTAL [7]: 2.1 g
KIDNEY_L [8]: 1.2 g
KIDNEY_R [8]: 1.2 g
KIDNEY_TOTAL [8]: 2.4 g
LIVER [6]: 8.5 g
LIVER [7]: 10.1 g
LIVER [8]: 11.8 g
A/G [6]: 1.2
ALP [6]: 1212.6 IU/L
ALT [6]: 34.4 IU/L
AST [6]: 82 IU/L
BUN [6]: 22.2 mg/dL
CRE [6]: 0.2 mg/dL
Ca [6]: 10.1 mg/dL
Cl [6]: 108 meq/L
DBIL [6]: 0.024 mg/dL
GLC [6]: 180.6 mg/dL
IP [6]: 7 mg/dL
K [6]: 4 meq/L
LDH [6]: 241.4 IU/L
Na [6]: 142.8 meq/L
PL [6]: 151.6 mg/dL
RALB [6]: 3.1 g/dL
TBIL [6]: 0.086 mg/dL
TC [6]: 85.8 mg/dL
TG [6]: 55.2 mg/dL
TP [6]: 5.6 g/dL
gamma-GTP [6]: 1.6 IU/L
A/G [7]: 1.2
ALP [7]: 1104 IU/L
ALT [7]: 41 IU/L
AST [7]: 79 IU/L
BUN [7]: 19.6 mg/dL
CRE [7]: 0.2 mg/dL
Ca [7]: 10 mg/dL
Cl [7]: 106.8 meq/L
DBIL [7]: 0.01 mg/dL
GLC [7]: 174 mg/dL
IP [7]: 7 mg/dL
K [7]: 4.1 meq/L
LDH [7]: 201.2 IU/L
Na [7]: 141.4 meq/L
PL [7]: 165.8 mg/dL
RALB [7]: 3 g/dL
TBIL [7]: 0.058 mg/dL
TC [7]: 92.4 mg/dL
TG [7]: 82.8 mg/dL
TP [7]: 5.6 g/dL
gamma-GTP [7]: 1.8 IU/L
A/G [8]: 1.1
ALP [8]: 1056.8 IU/L
ALT [8]: 25 IU/L
AST [8]: 66.8 IU/L
BUN [8]: 18.6 mg/dL
CRE [8]: 0.2 mg/dL
Ca [8]: 10.2 mg/dL
Cl [8]: 105.8 meq/L
DBIL [8]: 0.004 mg/dL
GLC [8]: 182 mg/dL
IP [8]: 6.6 mg/dL
K [8]: 4.1 meq/L
LDH [8]: 156.6 IU/L
Na [8]: 141.8 meq/L
PL [8]: 149.6 mg/dL
RALB [8]: 3.1 g/dL
TBIL [8]: 0.09 mg/dL
TC [8]: 87 mg/dL
TG [8]: 76.6 mg/dL
TP [8]: 6 g/dL
gamma-GTP [8]: 2.4 IU/L

Reference: ChEMBL document CHEMBL3885861, “Open TG-GATES”
